Source: publication PMC6151560, “Antibacterial and Antitubercular Activities of Cinnamylideneacetophenones” (Molecules : A Journal of Synthetic Chemistry and Natural …, 2017)
Converted amounts (≈) assume the structure as drawn. Read-outs that look alike come from different tables or passages of the source.

Assays:
[1] = system: Staphylococcus aureus (ATCC 14458); assay: Antibacterial broth microdilution (MIC/MBC), S. aureus; settings: for MIC: ATCC14458, 24 h
[2] = system: Escherichia coli (ATCC 10536); assay: Antibacterial broth microdilution (MIC), E. coli; settings: for MIC: ATCC10536, 24 h, read-out: Ec MIC
[3] = system: Streptococcus sanguinis (ATCC 10557); assay: Antibacterial broth microdilution (MIC/MBC), S. sanguinis; settings: for MIC: ATCC10557, 24 h; for MBC: ATCC10557, read-out: Ss MBC
[4] = system: M. tuberculosis; set-up: method as in PMID 26400221; settings: cited from earlier work
[5] = system: Pseudomonas aeruginosa (ATCC 15442); assay: Antibacterial broth microdilution (MIC), P. aeruginosa; settings: for MIC: ATCC15442, 24 h, read-out: Pa MIC
[6] = system: S. aureus strains; set-up: method as in PMID 28066373; settings: cited from earlier work
[7] = system: Streptococcus mutans (ATCC 25175); assay: Antibacterial broth microdilution (MIC/MBC), S. mutans; settings: for MIC: ATCC25175, 24 h; for MBC: ATCC25175, read-out: Sm MBC
[8] = system: Mycobacterium tuberculosis H37Rv (ATCC 27294); assay: Antitubercular REMA (Resazurin Microtiter Assay); format: cell-based; settings: read-out: Mt MIC
[9] = system: E. coli; set-up: method as in PMID 17662960; settings: cited from earlier work
[10] = DPPH radical scavenging ability; settings: at 1600, 800, 400, and 200 µM; DPPH 100 μM, 30 min, 25 °C
Description: The low selectivity of the cinnamylideneacetophenones 3 and 4 can be correlated with their phenolic nature. Studies report the ability of phenolic compounds to act on widespread radical processes shared by eukaryotic and prokaryotic cells. We hypothesized this behavior may be responsible by simultaneous activity toward bacteria and pulmonary cells. Therefore, we evaluated the radical scavenging ability of 3 and 4 using DPPH (2,2-diphenyl-1-picrylhydrazyl) protocol. […] Altogether, low selectivity of 3 and 4 cannot be strongly related to radical processes. Quercetin and gallic acid were used as positive controls due to their phenolic nature and potent radical scavenging ability.
Radical scavenging activity of compounds 3 and 4 was determined using 2,2-diphenyl-1-picrylhydrazyl (DPPH). Aliquots of 10 µL of 3, 4, and positive controls (quercetin and gallic acid) at concentrations 1600, 800, 400, and 200 μM (in EtOH) were individually added in 190 µL DPPH (100 μM). The mixtures were incubated in the dark at 25 °C for 30 min. Remaining DPPH was determined spectroscopically at 490 nm by blanking against absolute ethanol. Radical scavenging ability was expressed by using mean values obtained from triplicates as the percentage of radicals reduced by calculating the following equation: DPPH scavenging % = [1 − (Asample/A) × 100], where A is test absorbance without sample (only EtOH and DPPH) and Asample is test absorbance with compounds.

[11] = Partition coefficient log Po/w by HPLC-PDA (OECD method); settings: n-octanol/water (from HPLC retention on a C-18 column)
[12] = system: A549 (human lung adenocarcinoma epithelial cell line, ATCC CCL-185); assay: Cytotoxicity on lung cells (resazurin), A549; format: cell-based; settings: 24 h incubation
[13] = system: MRC-5 (human lung fibroblast cell line, ATCC CCL-171); assay: Cytotoxicity on lung cells (resazurin), MRC-5; settings: Homo sapiens, MRC5, read-out: IC50 on pulmonary cells
[14] = Cytotoxicity on lung cells (resazurin), MRC-5; settings: human, MRC-5 cells (lung fibroblast cell line, ATCC CCL-171)
[15] = in vitro; settings: human
[16] = physchem
[17] = broth microdilution, 24 h, tested 3.9 to 500 µM
[18] = Mycobacterium tuberculosis, 168 h
[19] = read-out: Sa MIC, Staphylococcus aureus, broth microdilution, 24 h, tested 3.9 to 500 µM
[20] = ATCC14458, read-out: MIC and MBC values
[21] = read-out: Ss MIC, Streptococcus sanguinis, broth microdilution, 24 h, tested 3.9 to 500 µM
[22] = read-out: Sm MIC, Streptococcus mutans, broth microdilution, 24 h, tested 3.9 to 500 µM
[23] = Mycobacterium tuberculosis, 168 h, M. tuberculosis H37Rv, REMA, 7 days, lowest concentration giving 90% inhibition of growth

## O=C/C=C/c1ccccc1 [Compound 1, Cinnamaldehyde, reference compound]
[1]; read-out: Sa MIC
  MIC: > 500 µM
[1]; [17]
  Sa MIC: >500 µM
[2]
  MIC: > 500 µM
[2]; broth microdilution, 24 h
  Ec MIC: >500 µM
[3]; read-out: Ss MIC
  MIC: > 500 µM
[3]; [17]
  Ss MIC: >500 µM
[4]
  MIC against M. tuberculosis: 3.12 µg/mL
[4]; converted value in brackets
  MIC against M. tuberculosis: 23 µM
[5]
  MIC: > 500 µM
[5]; broth microdilution, 24 h
  Pa MIC: >500 µM
[6]
  MIC against S. aureus strains: 250 µg/mL
[6]; converted value in brackets
  MIC against S. aureus strains: 1891 µM
[7]; read-out: Sm MIC
  MIC: > 500 µM
[7]; [17]
  Sm MIC: >500 µM
[8]; [18]
  MIC: > 200 µM
[9]
  MIC against E. coli: 1000 µg/mL
[9]; converted value in brackets
  MIC against E. coli: 7566 µM

## O=C(/C=C/C=C/c1ccccc1)c1cccc(O)c1 [Compound 3, (2E,4E)-1-(3-hydroxyphenyl)-5-phenylpenta-2,4-dien-1-one]
[1]; [19]
  MIC: 77.9 µM (≈ 19.5 µg/mL)
[1]; [20]
  MBC: 77.9 to 312 µM (≈ 19.5 to 78.1 µg/mL)
[1]; ATCC14458, read-out: Sa MBC
  MBC: 156 µM (≈ 39 µg/mL)
[2]
  MIC: > 500 µM
[3]; [21]
  MIC: 77.9 µM (≈ 19.5 µg/mL)
[3]
  MBC: 156 µM (≈ 39 µg/mL)
[10]
  percentages of DPPH scavenging ability: below 8%
[11]
  chromatographic logP: 2.7
[12]
  IC50: 96.7 µM
[5]
  MIC: > 500 µM
[13]
  IC50: 46.3 to 96.7 µM
[14]
  IC50 at 24 h: 46.3 µM
[7]; [22]
  MIC: 77.9 µM (≈ 19.5 µg/mL)
[7]
  MBC: 156 µM (≈ 39 µg/mL)
[8]; [23]
  MIC: 88.8 µM (≈ 22.2 µg/mL)

## O=C(/C=C/C=C/c1ccccc1)c1ccc(O)cc1 [Compound 4, (2E,4E)-1-(4-hydroxyphenyl)-5-phenylpenta-2,4-dien-1-one]
[1]; read-out: Sa MIC
  MIC: 77.9 µM (≈ 19.5 µg/mL)
[1]; [20]
  MBC: 77.9 to 312 µM (≈ 19.5 to 78.1 µg/mL)
[1]; ATCC14458, read-out: Sa MBC
  MBC: 77.9 µM (≈ 19.5 µg/mL)
[15]
  IC50: 53.1 µM
[2]
  MIC: > 500 µM
[3]; read-out: Ss MIC
  MIC: 156 µM (≈ 39 µg/mL)
[3]
  MBC: 312 µM (≈ 78.1 µg/mL)
[16]
  chromatographic logP: 2.6
[10]
  percentages of DPPH scavenging ability: below 8%
[12]
  IC50: 77.5 µM
[5]
  MIC: > 500 µM
[13]
  IC50: 46.3 to 96.7 µM
[7]; read-out: Sm MIC
  MIC: 156 µM (≈ 39 µg/mL)
[7]
  MBC: 312 µM (≈ 78.1 µg/mL)
[8]; [18]
  MIC: 81.9 µM (≈ 20.5 µg/mL)

## O=C(/C=C/C=C/c1ccccc1)c1ccc(Cl)cc1 [Compound 11, (2E,4E)-1-(4-chlorophenyl)-5-phenylpenta-2,4-dien-1-one]
[1]; read-out: Sa MIC
  MIC: > 500 µM
[2]
  MIC: > 500 µM
[3]; read-out: Ss MIC
  MIC: > 500 µM
[16]
  chromatographic logP: 3.7
[5]
  MIC: > 500 µM
[7]; read-out: Sm MIC
  MIC: > 500 µM
[8]; [18]
  MIC: > 200 µM

## O=C(/C=C/C=C/c1ccccc1)c1ccc(Br)cc1 [Compound 12, (2E,4E)-1-(4-bromophenyl)-5-phenylpenta-2,4-dien-1-one]
[1]; read-out: Sa MIC
  MIC: > 500 µM
[2]
  MIC: > 500 µM
[3]; read-out: Ss MIC
  MIC: > 500 µM
[16]
  chromatographic logP: 3.8
[5]
  MIC: > 500 µM
[7]; read-out: Sm MIC
  MIC: > 500 µM
[8]; [18]
  MIC: > 200 µM

## O=C(/C=C/C=C/c1ccccc1)c1cccc(C(F)(F)F)c1 [Compound 14, (2E,4E)-1-(3-(trifluoromethyl)phenyl)-5-phenylpenta-2,4-dien-1-one]
[1]; [19]
  MIC: > 500 µM
[2]
  MIC: > 500 µM
[3]; [21]
  MIC: > 500 µM
[11]
  chromatographic logP: 3.7
[5]
  MIC: > 500 µM
[7]; [22]
  MIC: > 500 µM
[8]; [23]
  MIC: > 200 µM

## O=C(/C=C/C=C/c1ccccc1)c1cccc([N+](=O)[O-])c1 [Compound 15, (2E,4E)-1-(3-nitrophenyl)-5-phenylpenta-2,4-dien-1-one]
[1]; [19]
  MIC: > 500 µM
[2]
  MIC: > 500 µM
[3]; [21]
  MIC: > 500 µM
[11]
  chromatographic logP: 3.3
[5]
  MIC: > 500 µM
[7]; [22]
  MIC: > 500 µM
[8]; [23]
  MIC: > 200 µM

## O=C(/C=C/C=C/c1ccccc1)c1ccc([N+](=O)[O-])cc1 [Compound 16, (2E,4E)-1-(4-nitrophenyl)-5-phenylpenta-2,4-dien-1-one]
[1]; [19]
  MIC: > 500 µM
[2]
  MIC: > 500 µM
[3]; [21]
  MIC: > 500 µM
[11]
  chromatographic logP: 3.2
[5]
  MIC: > 500 µM
[7]; [22]
  MIC: > 500 µM
[8]; [23]
  MIC: > 200 µM

## Cc1cccc(C(=O)/C=C/C=C/c2ccccc2)c1 [Compound 17, (2E,4E)-1-(3-methylphenyl)-5-phenylpenta-2,4-dien-1-one]
[1]; [19]
  MIC: > 500 µM
[2]
  MIC: > 500 µM
[3]; [21]
  MIC: > 500 µM
[11]
  chromatographic logP: 3.6
[5]
  MIC: > 500 µM
[7]; [22]
  MIC: > 500 µM
[8]; [23]
  MIC: > 200 µM

## Cc1ccc(C(=O)/C=C/C=C/c2ccccc2)cc1 [Compound 18, (2E,4E)-1-(4-methylphenyl)-5-phenylpenta-2,4-dien-1-one]
[1]; [19]
  MIC: > 500 µM
[2]
  MIC: > 500 µM
[3]; [21]
  MIC: > 500 µM
[11]
  chromatographic logP: 3.5
[5]
  MIC: > 500 µM
[7]; [22]
  MIC: > 500 µM
[8]; M. tuberculosis H37Rv, REMA, 7 days, lowest concentration giving 90% inhibition of growth
  MIC: 70.9 µM (≈ 17.6 µg/mL)
[8]; [23]
  MIC: 57.2 to 70.9 µM (≈ 14.2 to 17.6 µg/mL)

## O=c1c(O)c(-c2ccc(O)c(O)c2)oc2cc(O)cc(O)c12 [Quercetin, reference compound]
[10]
  percentages of DPPH scavenging ability: ≥ 95%

## COc1cccc2c1C(=O)c1c(O)c3c(c(O)c1C2=O)C[C@@](O)(C(=O)CO)C[C@@H]3O[C@H]1C[C@H](N)[C@H](O)[C@H](C)O1 [doxorubicin, reference compound]
[12]
  IC50: 1.8 µM
[14]
  IC50 at 24 h: 0.7 µM

## O=C(O)c1cc(O)c(O)c(O)c1 [gallic acid, reference compound]
[10]
  percentages of DPPH scavenging ability: ≥ 95%
